Measured values reported in article PMC11111691, “Cystine-knot peptide inhibitors of HTRA1 bind to a cryptic pocket within the active site region” (Nature Communications, 2024).
Positions of bridges follow the written chain, without caps; N, C: chain ends. Residues, ends and D or L forms follow the SMILES beside them.

Legend:
HTRA1^FL = target: T1, HTRA1^FL (Homo sapiens, UniProt Q92743); test: HTRA1^FL enzyme inhibition assay with synthetic substrate H2-OPT; type: biochemical
T1 construct: Human full-length HTRA1 (HTRA1^FL, Q23-P480); made in house; host or cells: Trichoplusia ni cells
How it was run: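 CKP or 7mer-ABP preincubated with protease at 37 °C (CKP 60 min; 7mer-ABP 15 min, 2 µM selectivity), then 5 µM Mca-IRRVSYSFK(Dnp)K added in TNC buffer, 0.25% DMSO. Cleavage read kinetically at 37 °C (ex 328/em 393 nm); initial rates as % DMSO control, IC50 by 4PL fit.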

MDCK monolayer = test: MDCK trans-well cell permeability assay; type: in vitro ADME, canine; details: MDCK trans-well, apical to basolateral, up to 50 µM, 16 h, mass spectrometry
Description: We carried out a cell permeability study using a MDCK trans-well assay, which is commonly
used at Genentech for permeability screening of compounds . This assay measures the flux of test
compound (Papp, apparent permeability) across a MDCK monolayer from the apical to the
basolateral compartment over a 16 h period.
sensitive mass spectrometry method .
10x10-6 cm/s and compounds with Papp values of <1x10-6 cm/s are considered to be of low
Protocol of permeability assay:
Experiments were carried out as described (Chen et al. Evaluating the utility of canine Mdr1 knockout
Madin-Darby canine kidney I cells in permeability screening and efflux substrate determination, Mol
Cells were seeded in 96-well Corning Transwell plates (PET membrane, 1 µm pore size) at 75,000 cells
per well and grown in DMEM media supplemented with 10% FBS, 1% pen-strep and 1x Glutamax at
37C, 5% CO2 for 48 h to ensure monolayer formation. Stock solutions of the three CKPs 1B3, 1D3-ENI
and 1G10-ENI were diluted in Hank's Balanced Salt solution containing 25 mM HEPES, pH 7.4 and 25
µM of the monolayer integrity marker lucifer yellow. CKPs at a concentration of 50 µM were added to
the apical (donor) chamber and the CKP the apparent permeability (Papp) was determined by quantifying
the amount of CKP in the basolateral (receiver) chamber after 16 h incubation at 37C, 5% CO2. The
samples from the basolateral chamber were supplemented with the experiment analytical internal standard
(100 nM propranolol in 50% ACN:50% water with 0.1% formic acid) and then injected in a Sciex Zeno
TOF 7600 mass spectrometer using TOF/MS mode.

HTRA3^PD/PDZ, HTRA3^FL [1] = target: T2, HTRA3^PD/PDZ, HTRA3^FL (Homo sapiens, UniProt P83110); test: Fluorescence-quenched casein-BODIPY assay, HTRA3; type: biochemical; details: 2 µM CKP (0.5 mM 7mer-ABP)
T2 construct: purchased Abcam (FL form); the PD/PDZ form was made in house in E. coli ab134450
Description: (§1) The fluorescence-quenched casein-BODIPY® assay (EnzCheck®, Thermo Fisher Scientific) was carried out in TNC buffer (50 mM Tris pH 8.0, 200 mM NaCl, 0.25% CHAPS) at 37 °C in 96-well black optical bottom plates (Nalge Nunc Int., Rochester, NY). Enzymes were incubated with CKPs or DMSO control for 15 min prior to addition of casein substrate. The reactant concentrations were: 30 nM HTRA1^FL, 30 nM HTRA1^PD/PDZ, 30 nM HTRA1^PD, 30 nM HTRA2^PD/PDZ, 30 nM HTRA3^FL, 100 nM HTRA3^PD/PDZ, 30 nM HTRA4^FL, 300 nM HTRA4^PD/PDZ, 2 µM CKP, 5 µg/ml casein substrate and 0.25% DMSO. For selectivity assays, 0.5 mM 7mer-ABP was used as positive control. The kinetics of substrate cleavage were measured at 37 °C on a SpectraMax M5 microplate reader (Molecular Devices) with excitation of 485 nm and emission of 530 nm for 30 min (HTRA1 and HTRA2) or 5 h (HTRA3 and HTRA4). The determined initial rates of cleavage were expressed as percent of control (DMSO control) after subtracting the baseline rates (without enzyme).

HTRA4^PD/PDZ, HTRA4^FL [2] = target: T3, HTRA4^PD/PDZ, HTRA4^FL (Homo sapiens, UniProt P83105); test: Fluorescence-quenched casein-BODIPY assay, HTRA4; type: biochemical; details: 30 nM HTRA4^FL, 2 µM CKP (0.5 mM 7mer-ABP)
T3 construct: purchased Abcam (FL form); the PD/PDZ form was made in house in E. coli ab134444
T3 sequence (P83105 32-476): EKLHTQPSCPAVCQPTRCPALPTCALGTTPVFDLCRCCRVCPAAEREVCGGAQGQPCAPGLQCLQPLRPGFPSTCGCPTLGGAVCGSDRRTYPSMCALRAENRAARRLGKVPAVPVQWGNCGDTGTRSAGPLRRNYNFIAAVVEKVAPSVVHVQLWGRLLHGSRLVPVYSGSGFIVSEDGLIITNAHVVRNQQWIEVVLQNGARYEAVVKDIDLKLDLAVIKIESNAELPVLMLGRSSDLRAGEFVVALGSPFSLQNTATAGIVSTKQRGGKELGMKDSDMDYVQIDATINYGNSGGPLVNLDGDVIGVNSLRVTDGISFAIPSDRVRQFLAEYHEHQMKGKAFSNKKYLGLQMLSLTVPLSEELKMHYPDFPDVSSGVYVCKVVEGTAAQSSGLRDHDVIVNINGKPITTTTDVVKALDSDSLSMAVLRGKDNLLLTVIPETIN
Description: as §1

HTRA4^PD/PDZ, HTRA4^FL [3] = target: T4, HTRA4^PD/PDZ, HTRA4^FL (Homo sapiens, UniProt P83105); test: Fluorescence-quenched casein-BODIPY assay, HTRA4; type: biochemical; details: 300 nM HTRA4^PD/PDZ, 2 µM CKP (0.5 mM 7mer-ABP)
T4 construct: purchased Abcam (FL form); the PD/PDZ form was made in house in E. coli ab134444
T4 sequence (P83105 153-476): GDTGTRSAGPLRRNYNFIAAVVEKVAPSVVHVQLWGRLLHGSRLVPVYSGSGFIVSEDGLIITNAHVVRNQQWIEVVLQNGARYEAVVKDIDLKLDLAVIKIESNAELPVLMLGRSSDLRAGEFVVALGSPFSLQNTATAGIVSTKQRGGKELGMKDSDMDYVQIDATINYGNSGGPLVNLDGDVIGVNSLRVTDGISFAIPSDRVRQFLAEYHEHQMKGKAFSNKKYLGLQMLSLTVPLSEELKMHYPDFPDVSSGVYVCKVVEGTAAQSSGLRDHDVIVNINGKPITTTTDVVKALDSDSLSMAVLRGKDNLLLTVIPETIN
Description: as §1

HTRA3^PD/PDZ, HTRA3^FL [4] = target: T2, HTRA3^PD/PDZ, HTRA3^FL; test: H2-OPT selectivity assay, HTRA3; type: biochemical; details: 2 µM CKP (0.5 mM 7mer-ABP)
Description: Assays with the fluorescence-quenched synthetic substrate Mca-IRRVSYSFK(Dnp)K (H2-OPT)[38],[60] were carried out essentially as described. CKP stock solutions in DMSO were diluted in TNC buffer (dilution series for IC50 determinations, or final concentration of 2 µM for selectivity assay or as indicated for HTRA1/4 mutants) and incubated with enzymes in 96-well black optical bottom plates for 60 min at 37 °C. For selectivity experiments we used the 7mer-ABP as inhibitor, which was incubated with the proteases for 15 min at 37 °C. A 10 mM stock solution of H2-OPT in DMSO was diluted with water, prewarmed at 37 °C and then added to the CKP-enzyme mixtures. The final concentrations in the reaction mixtures were: 1 nM HTRA1^FL, 3 nM HTRA1^PD/PDZ, 1 nM HTRA1^PD, 1 nM HTRA2^PD/PDZ, 3 nM HTRA3^FL, 60 nM HTRA3^PD/PDZ, 6 nM HTRA4^FL, 1 µM HTRA4^PD/PDZ, 1 nM mouse HTRA1^PD, 25 nM HTRA1^PD-A202Y, 1 µM HTRA4^PD/PDZ-Y200A, 0.5 mM 7mer-ABP, 5 µM H2-OPT, and 0.25% DMSO. The kinetics of substrate cleavage was measured at 37 °C on a SpectraMax M5 microplate reader with excitation of 328 nm and emission of 393 nm. The determined initial rates of cleavage were expressed as percent of control (DMSO control) after subtracting the baseline rates (without enzyme). IC50 values were determined by Sigmoidal 4PL modeling of multiple data points from serial dilutions of CKPs using Prism 9 software (GraphPad). […]

HTRA4^PD/PDZ, HTRA4^FL [5] = target: T3, HTRA4^PD/PDZ, HTRA4^FL; test: H2-OPT selectivity assay, HTRA4; type: biochemical; details: 6 nM HTRA4^FL, 2 µM CKP (0.5 mM 7mer-ABP)
Description: (§2) Assays with the fluorescence-quenched synthetic substrate Mca-IRRVSYSFK(Dnp)K (H2-OPT)[38],[60] were carried out essentially as described. CKP stock solutions in DMSO were diluted in TNC buffer (dilution series for IC50 determinations, or final concentration of 2 µM for selectivity assay or as indicated for HTRA1/4 mutants) and incubated with enzymes in 96-well black optical bottom plates for 60 min at 37 °C. For selectivity experiments we used the 7mer-ABP as inhibitor, which was incubated with the proteases for 15 min at 37 °C. A 10 mM stock solution of H2-OPT in DMSO was diluted with water, prewarmed at 37 °C and then added to the CKP-enzyme mixtures. The final concentrations in the reaction mixtures were: 1 nM HTRA1^FL, 3 nM HTRA1^PD/PDZ, 1 nM HTRA1^PD, 1 nM HTRA2^PD/PDZ, 3 nM HTRA3^FL, 60 nM HTRA3^PD/PDZ, 6 nM HTRA4^FL, 1 µM HTRA4^PD/PDZ, 1 nM mouse HTRA1^PD, 25 nM HTRA1^PD-A202Y, 1 µM HTRA4^PD/PDZ-Y200A, 0.5 mM 7mer-ABP, 5 µM H2-OPT, and 0.25% DMSO. The kinetics of substrate cleavage was measured at 37 °C on a SpectraMax M5 microplate reader with excitation of 328 nm and emission of 393 nm. The determined initial rates of cleavage were expressed as percent of control (DMSO control) after subtracting the baseline rates (without enzyme). IC50 values were determined by Sigmoidal 4PL modeling of multiple data points from serial dilutions of CKPs using Prism 9 software (GraphPad). For selectivity assays with HTRA1-4^PD/PDZ constructs, the specific activities of the enzymes and enzyme:CKP inhibitor ratios were as follows: HTRA1^PD/PDZ, 12560 mRFU/min/nM – 1:667; HTRA2^PD/PDZ, 32300 mRFU/min/nM – 1:2000; HTRA3^PD/PDZ, 962 mRFU/min/nM – 1:33; HTRA4^PD/PDZ, 18 mRFU/min/nM – 1:2.

HTRA4^PD/PDZ, HTRA4^FL [6] = target: T4, HTRA4^PD/PDZ, HTRA4^FL; test: H2-OPT selectivity assay, HTRA4; type: biochemical; details: 1 µM HTRA4^PD/PDZ, 2 µM CKP (0.5 mM 7mer-ABP), 5 µM H2-OPT
Description: as §2

T1 sequence (Q92743 23-480): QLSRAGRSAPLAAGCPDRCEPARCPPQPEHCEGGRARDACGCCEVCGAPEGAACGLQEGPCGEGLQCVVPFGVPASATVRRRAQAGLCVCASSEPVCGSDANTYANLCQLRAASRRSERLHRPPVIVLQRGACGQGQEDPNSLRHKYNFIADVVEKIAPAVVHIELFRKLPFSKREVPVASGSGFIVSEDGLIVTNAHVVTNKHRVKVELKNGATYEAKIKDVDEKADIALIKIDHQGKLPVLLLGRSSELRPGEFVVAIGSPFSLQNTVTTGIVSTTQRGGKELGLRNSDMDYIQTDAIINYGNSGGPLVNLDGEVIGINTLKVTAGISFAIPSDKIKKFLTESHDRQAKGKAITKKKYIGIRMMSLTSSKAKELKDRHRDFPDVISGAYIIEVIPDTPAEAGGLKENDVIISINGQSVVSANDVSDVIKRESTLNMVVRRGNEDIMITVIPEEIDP

Row | Inhibition of HTRA1^FL at single concentration, H2-OPT (% of control) (HTRA1^FL; 1 nM HTRA1^FL, 2 µM CKP (0.5 mM 7mer-ABP)) | Inhibition of HTRA3^FL, casein-BODIPY cleavage (% of control) (HTRA3^PD/PDZ, HTRA3^FL [1]; 30 nM HTRA3^FL) | Inhibition of HTRA3^PD/PDZ, casein-BODIPY cleavage (% of control) (HTRA3^PD/PDZ, HTRA3^FL [1]; 100 nM HTRA3^PD/PDZ) | Inhibition of HTRA4^FL, casein-BODIPY cleavage (% of control) (HTRA4^PD/PDZ, HTRA4^FL [2]) | Inhibition of HTRA4^PD/PDZ, casein-BODIPY cleavage (% of control) (HTRA4^PD/PDZ, HTRA4^FL [3]) | Inhibition of HTRA3^FL, H2-OPT (% of control) (HTRA3^PD/PDZ, HTRA3^FL [4]; 3 nM HTRA3^FL) | Inhibition of HTRA3^PD/PDZ, H2-OPT (% of control) (HTRA3^PD/PDZ, HTRA3^FL [4]; 60 nM HTRA3^PD/PDZ, 5 µM H2-OPT) | Inhibition of HTRA4^FL, H2-OPT (% of control) (HTRA4^PD/PDZ, HTRA4^FL [5]) | Inhibition of HTRA4^PD/PDZ, H2-OPT (% of control) (HTRA4^PD/PDZ, HTRA4^FL [6]) | Compound | IC50 (HTRA1^FL) | Cell permeability in the MDCK cell assay (MDCK monolayer)
1 | – | – | – | – | – | – | – | – | – | CC[C@H](C)[C@H](NC(=O)[C@@H]1CCCN1C(=O)[C@H](CC(=O)O)NC(=O)[C@H](C)NC(=O)[C@@H](N)Cc1c[nH]cn1)C(=O)N[C@H]1CSSC[C@@H]2NC(=O)[C@H](Cc3ccccc3)NC(=O)[C@H](Cc3c[nH]c4ccccc34)NC(=O)[C@H](C)NC(=O)CNC(=O)[C@H](CO)NC(=O)[C@@H]3CSSC[C@@H](C(=O)NCC(=O)N4CCC[C@H]4C(=O)N[C@@H](Cc4ccc(O)cc4)C(=O)N[C@H](C(=O)NCC(N)=O)C(C)C)NC(=O)[C@H](CO)NC(=O)[C@H](Cc4c[nH]c5ccccc45)NC(=O)[C@H]([C@@H](C)O)NC(=O)[C@H](C)NC(=O)[C@H](Cc4ccc(O)cc4)NC(=O)[C@H](Cc4ccc(O)cc4)NC(=O)[C@H](CSSC[C@H](NC(=O)[C@@H]4CCCN4C(=O)[C@H](CCCCN)NC(=O)[C@H](CC(N)=O)NC1=O)C(=O)N[C@@H](CCCCN)C(=O)N[C@@H]([C@@H](C)O)C(=O)N[C@@H](Cc1c[nH]cn1)C(=O)N[C@@H](CC(=O)O)C(=O)N[C@@H](CC(=O)O)C(=O)N3)NC(=O)[C@H](C)NC(=O)[C@H](CCC(N)=O)NC2=O [3B3] (H-HADPICNKPCKTHDDCSGAWFCQACYYATWSCGPYVG-NH2; disulfide 6-22, 10-25, 16-32) | 53 nM | no detectable cell permeability
2 | significantly inhibited | significantly inhibited | significantly inhibited | significantly inhibited | significantly inhibited | significantly inhibited | significantly inhibited | significantly inhibited | significantly inhibited | DPMFKLV-phosphonate [7mer-ABP] | – | –
